# Results from patent publication US8946478B2, “Benzamide derivative with anticancer activity and preparation method and use thereof” (Zhejiang Hisun Pharmaceutical Co., Ltd., priority 2010, dated 2015).
# Tested on: 18 tumor cell strains
# Assay: In vitro efficacy screening, summary over the tumor cell strains
# Format: cell-based, human
compound,measurement,setting,value
"C#Cc1ccc(C(N)=O)cc1[N+](=O)[O-] [Compound I-1, 4-ethynyl-3-nitrobenzamide]",efficacy relative to the positive drug BSI-201,in the measured 18 tumor cell strains,10 times
same,inhibitory effects on tumor cell proliferation (in words),"in vitro screening, BSI-201 as positive drug",have inhibitory effects on tumor cell proliferation
